These results are taken from patent publication US20260184693A1, “INHIBITORS OF SOLUTE CARRIER FAMILY 6A MEMBER 19 (SLC6A19) AND METHODS OF USE THEREOF” (Maze Therapeutics, Inc., priority 2022, published 2026).

Experiment [1] has as its target T1, human SLC6A19 (Homo sapiens, UniProt Q695T7).
T1 construct: expressed in transfected cells
T1 sequence (Q695T7 1-634): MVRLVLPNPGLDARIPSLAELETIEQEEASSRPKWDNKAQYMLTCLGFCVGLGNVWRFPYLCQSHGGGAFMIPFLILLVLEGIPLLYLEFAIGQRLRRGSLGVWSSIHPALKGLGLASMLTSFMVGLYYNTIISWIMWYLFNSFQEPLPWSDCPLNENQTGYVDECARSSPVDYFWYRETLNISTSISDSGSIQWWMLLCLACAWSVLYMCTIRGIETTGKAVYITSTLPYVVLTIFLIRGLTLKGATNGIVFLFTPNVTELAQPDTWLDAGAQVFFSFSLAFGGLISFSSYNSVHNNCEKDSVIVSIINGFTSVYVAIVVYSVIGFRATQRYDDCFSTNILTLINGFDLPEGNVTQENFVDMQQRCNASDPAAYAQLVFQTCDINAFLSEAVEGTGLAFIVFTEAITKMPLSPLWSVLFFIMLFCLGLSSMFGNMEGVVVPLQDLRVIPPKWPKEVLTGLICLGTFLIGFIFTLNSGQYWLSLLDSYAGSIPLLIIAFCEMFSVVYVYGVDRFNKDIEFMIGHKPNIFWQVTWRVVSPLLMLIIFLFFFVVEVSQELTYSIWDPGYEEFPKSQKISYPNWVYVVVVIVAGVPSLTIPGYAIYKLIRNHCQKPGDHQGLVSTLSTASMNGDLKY
T1 sequence (Q9HBJ8 15-222 partner): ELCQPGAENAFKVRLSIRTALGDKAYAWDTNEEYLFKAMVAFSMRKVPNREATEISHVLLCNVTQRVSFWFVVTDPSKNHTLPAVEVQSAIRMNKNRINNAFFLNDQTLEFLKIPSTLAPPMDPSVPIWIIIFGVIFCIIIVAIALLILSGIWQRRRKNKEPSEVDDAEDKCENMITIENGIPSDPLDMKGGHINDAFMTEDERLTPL
In words: Example B-1: L-[3H]leucine uptake, liquid scintillation, in CHO cells with doxycycline-inducible expression of human SLC6A19 and TMEM27. It is filed as cell-based. The settings on record: read-out: SLC6A19_Radioligand Uptake Assay IC50. The method in brief:
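CHO cells induced 18 h with 1 µg/mL doxycycline (uninduced wells as expression control), washed in HBSS, compound in 8-point 3-fold series (0.5% DMSO), then 1.6 mM final [3H]:cold leucine (1:15000) uptake for 20 min at 37 °C. Scintillation counting; activity normalized to positive control (0%) and DMSO (100%).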

Experiment [2] addresses T1, human SLC6A19. In words: Example B2: 13C6,15N-isoleucine uptake, RapidFire mass spectrometry, in CHO cells with doxycycline-inducible expression of human SLC6A19 and TMEM27. The settings on record: read-out: SLC6A19_RapidFire Uptake Assay IC50. The experiment is classed as cell-based. The method in brief:
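CHO cells were induced with doxycycline to express human SLC6A19 with TMEM27, then pre-incubated 20 min at 37 °C with compounds (2-fold, 10-point, duplicate). Uptake of 13C6,15N-isoleucine (2 mM solution added) over a further 20 min was measured by RapidFire mass spectrometry, using 13C-leucine as internal standard.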

As to `Cc1conc1N1CCC[C@@H](N(C)C(=O)NCc2cc3cc(Cl)ccc3[nH]2)C1` [Compound 234, (R)-3-((5-chloro-1H-indol-2-yl)methyl)-1-methyl-1-(1-(4-methylisoxazol-3-yl)piperidin-3-yl)urea], the results for the IC50 in experiment [1] and in experiment [2] were 367 nM and 255 nM, respectively.
As to `CC(=O)N1CCC[C@@H](N(C)C(=O)NCc2cc3[nH]cc(C)c3cc2Cl)C1` [Compound 235, (R)-1-(1-acetylpiperidin-3-yl)-3-((5-chloro-3-methyl-1H-indol-6-yl)methyl)-1-methylurea], the IC50 (usually the concentration at which inhibition is half-maximal) is 673 nM in experiment [1] and 893 nM in experiment [2].
For `Cc1cc(C(=O)N2CCC[C@@H](N(C)C(=O)NCc3cc4cc(Cl)ccc4[nH]3)C2)nn1C` [Compound 236, (R)-3-((5-chloro-1H-indol-2-yl)methyl)-1-(1-(1,5-dimethyl-1H-pyrazole-3-carbonyl)piperidin-3-yl)-1-methylurea], in that order: 975 nM and 805 nM.
The matching figures for `CN(C(=O)NCc1cc2cc(Cl)ccc2[nH]1)[C@@H]1CCCN(C(=O)c2cccnc2)C1` [Compound 237, (R)-3-((5-chloro-1H-indol-2-yl)methyl)-1-methyl-1-(1-nicotinoylpiperidin-3-yl)urea]: 434 nM and 1210 nM.
Consider `CN(C(=O)NCc1cc2cc(Cl)ccc2[nH]1)[C@@H]1CCCN(C(=O)c2cnoc2)C1` [Compound 238, (R)-3-((5-chloro-1H-indol-2-yl)methyl)-1-(1-(isoxazole-4-carbonyl)piperidin-3-yl)-1-methylurea], for which the IC50 was 283 nM in experiment [1] and 836 nM in experiment [2].
For `CN(C(=O)NCc1cc2cc(Cl)ccc2[nH]1)[C@@H]1CCCN(C(=O)c2cnco2)C1` [Compound 239, (R)-3-((5-chloro-1H-indol-2-yl)methyl)-1-methyl-1-(1-(oxazole-5-carbonyl)piperidin-3-yl)urea], in that order: 209 nM and 287 nM.
`CCn1ccc(C(=O)N2CCC[C@@H](N(C)C(=O)NCc3cc4cc(Cl)ccc4[nH]3)C2)n1` [Compound 240, (R)-3-((5-chloro-1H-indol-2-yl)methyl)-1-(1-(1-ethyl-1H-pyrazole-3-carbonyl)piperidin-3-yl)-1-methylurea]: the IC50 in experiment [1] turned out to be 154 nM; in experiment [2], 160 nM.
As to `CN(C(=O)NCc1cc2cc(Cl)ccc2[nH]1)[C@@H]1CCCN(C(=O)c2ccccn2)C1` [Compound 241, (R)-3-((5-chloro-1H-indol-2-yl)methyl)-1-methyl-1-(1-picolinoylpiperidin-3-yl)urea], the IC50 in experiment [1] amounted to 387 nM; in experiment [2], 626 nM.
For `CC(=O)N1CCC[C@@H](N(C)C(=O)NCCc2ccc(F)c(-c3cc4ccccc4[nH]3)c2)C1` [Compound 244, (R)-1-(1-acetylpiperidin-3-yl)-3-(4-fluoro-3-(1H-indol-2-yl)phenethyl)-1-methylurea], in that order: greater than 10000 nM and 7080 nM.
For `CC(=O)N1CCC[C@@H](N(C)C(=O)NCCc2cc(-c3cc4ccccc4[nH]3)c(Cl)cc2F)C1` [Compound 245, (R)-1-(1-acetylpiperidin-3-yl)-3-(4-chloro-2-fluoro-5-(1H-indol-2-yl)phenethyl)-1-methylurea], in that order: 459 nM and 151 nM.
